This is an account of results in patent US12233161B1, “Lipids and lipid nanoparticle formulations” (LONGUIDE BIOPHARMA CORPORATION, priority 2024, dated 2025).

The subject of data set [1] is mice. The data set can be described thus: In vivo delivery of FLuc-mRNA lipid nanoparticles in mice, in vivo imaging (IVIS). The conditions noted are these: for IVIS: Fluc-mRNA. In a few lines: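 Mice (n=3) received about 75 μL FLuc-mRNA LNP per mouse intramuscularly (rectus femoris), intravenously (tail vein), intraperitoneally or subcutaneously (back). After injection, D-luciferin (200 μL, 15 mg/mL) was given i.p. 10-15 min before IVIS imaging.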

Data set [2] in a line: Particle size and PDI of nucleic acid lipid nanoparticle preparations by dynamic light scattering. Format: physicochemical. An outline of the steps: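 LNP solution (about 0.04 mg/mL mRNA before dilution) was diluted in ultrapure water and mixed by gentle pipetting. Particle size and PDI were then measured by dynamic light scattering.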
A short description of data set [3]: Potential characterization of nucleic acid lipid nanoparticle preparations. Format: physicochemical. An outline of the steps: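 Zeta potential was read on a Malvern ZEN3700 after diluting 20 μL lipid nanoparticle solution (about 0.04 mg/mL mRNA) into 780 μL ultrapure water. Alternatively, a 27.5 μL sample in 200 μL water was first sized by dynamic light scattering, then diluted with 600 μL more water for potential measurement.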

The mark [4] stands for this setting: IV, liver, DMG-PEG2000:DSPC:Chol:compound 1.00:10.00:33.00:56.00, N/P 35.5.
Setting [5] is: IV, liver, DMG-PEG2000:DSPC:Chol:compound 1.40:11.15:38.95:48.50, N/P 40.
Where [6] appears, read: IV, lung, DMG-PEG2000:DSPC:Chol:compound 1.00:10.00:33.00:56.00, N/P 35.5.
Where [7] appears, read: IV, lung, DMG-PEG2000:DSPC:Chol:compound 1.40:11.15:38.95:48.50, N/P 40.
Where [8] appears, read: IV, spleen, DMG-PEG2000:DSPC:Chol:compound 1.00:10.00:33.00:56.00, N/P 35.5.
Setting [9] is: IV, spleen, DMG-PEG2000:DSPC:Chol:compound 1.40:11.15:38.95:48.50, N/P 40.
Where [10] appears, read: DMG-PEG2000:DSPC:Chol:compound 1.00:10.00:33.00:56.00, N/P 35.5.
The mark [11] stands for this setting: DMG-PEG2000:DSPC:Chol:compound 1.40:11.15:38.95:48.50, N/P 40.
The mark [12] stands for this setting: IM, DMG-PEG2000:DSPC:Chol:compound 1.40:11.15:38.95:48.50, N/P 30.
Setting [13] is: DMG-PEG2000:DSPC:Chol:compound 1.40:11.15:38.95:48.50, N/P 30.
[14] abbreviates: IV, body, DMG-PEG2000:DSPC:Chol:compound 1.40:11.15:38.95:48.50, N/P 30.
The mark [15] stands for this setting: IV, liver, DMG-PEG2000:DSPC:Chol:compound 1.40:11.15:38.95:48.50, N/P 30.
The mark [16] stands for this setting: IV, lung, DMG-PEG2000:DSPC:Chol:compound 1.40:11.15:38.95:48.50, N/P 30.
Where [17] appears, read: IV, spleen, DMG-PEG2000:DSPC:Chol:compound 1.40:11.15:38.95:48.50, N/P 30.

On to `CCCCCCCCCCNC(=O)C(O)CN(CCCN(CCCN(CCO)CCO)CCCN(CC(O)C(=O)NCCCCCCCCCC)CC(O)C(=O)NCCCCCCCCCC)CC(O)C(=O)NCCCCCCCCCC` (stereo not shown) [Compound L0304], for which the IVIS is listed as 3.48E+05 in data set [1] (IM, DMG-PEG2000:DSPC:Chol:compound 1.40:11.15:38.95:48.50, N/P 40); 9.15E+06 in data set [1] (IV, body, DMG-PEG2000:DSPC:Chol:compound 1.00:10.00:33.00:56.00, N/P 35.5); 1.29E+07 in data set [1] (IV, body, DMG-PEG2000:DSPC:Chol:compound 1.40:11.15:38.95:48.50, N/P 40); 6.18E+05 in data set [1] (setting [4]); 7.31E+05 in data set [1] (setting [5]); 2.12E+07 in data set [1] (setting [6]). Moreover, the IVIS in data set [1] (setting [7]) worked out at 2.87E+07; in data set [1] (setting [8]) it was 1.62E+06; in data set [1] (setting [9]), 2.27E+06. The “% of organ targeting” value was found to be 2.63% in data set [1] (setting [4]); 2.30% in data set [1] (setting [5]); 90.44% in data set [1] (setting [6]); 90.53% in data set [1] (setting [7]); 6.93% in data set [1] (setting [8]); 7.17% in data set [1] (setting [9]). For the same compound, the PDI in data set [2] (setting [10]) was determined as 0.15; in data set [2] (setting [11]) it was 0.14. For the same compound, the “Particle size (nm)” value is on record as 121.27 nm in data set [2] (setting [10]) and 101.73 nm in data set [2] (setting [11]). The “Zeta potential (mV)” value in data set [3] (setting [11]) is on record as 11.93 mV.

Take `CCCCCCCCCCOC(=O)C(O)CN(C)CCCN(C)CCCN(C)CC(O)C(=O)OCCCCCCCCCC` (stereo not shown) [Compound L0315]: the IVIS in data set [1] (setting [12]) is 8.43E+05; in data set [1] (IV, organ not given, DMG-PEG2000:DSPC:Chol:compound 1.40:11.15:38.95:48.50, N/P 30) it was 5.00E+05. Further, the PDI in data set [2] (setting [13]) was determined as 0.13. Besides, the “Particle size (nm)” value in data set [2] (setting [13]) is 141.63 nm. In data set [3] (setting [13]), the “Zeta potential (mV)” value amounted to 12.5 mV.

On to `CCCCCCC(CCCCCC)C(=O)OCCCCCCOC(=O)C(O)CN(CCN(C)CCN(CC(O)C(=O)OCCCCCCOC(=O)C(CCCCCC)CCCCCC)CC(O)C(=O)OCCCCCCOC(=O)C(CCCCCC)CCCCCC)CC(O)C(=O)OCCCCCCOC(=O)C(CCCCCC)CCCCCC` (stereo not shown) [Compound L0336], for which the IVIS in data set [1] (setting [12]) stood at 1.51E+08; in data set [1] (setting [14]), 9.63E+08; in data set [1] (setting [15]) it was 1.95E+08; in data set [1] (setting [16]), 1.59E+06; in data set [1] (setting [17]) it was 2.65E+07. Moreover, the “% of organ targeting” value in data set [1] (setting [15]) came to 87.42%; in data set [1] (setting [16]), 0.71%; in data set [1] (setting [17]), 11.87%. Also, in data set [2] (setting [13]), the PDI was 0.13. For the same compound, in data set [2] (setting [13]), the “Particle size (nm)” value is on record as 78.38 nm. In addition, in data set [3] (setting [13]), the “Zeta potential (mV)” value is 4.21 mV.

`CCCCCCC(CCCCCC)C(=O)OCCCCOC(=O)C(O)CN(CCCN(C)CCCN(CC(O)C(=O)OCCCCOC(=O)C(CCCCCC)CCCCCC)CC(O)C(=O)OCCCCOC(=O)C(CCCCCC)CCCCCC)CC(O)C(=O)OCCCCOC(=O)C(CCCCCC)CCCCCC` (stereo not shown) [Compound L0294]: the IVIS came out at 3.81E+07 in data set [1] (setting [12]); 3.72E+08 in data set [1] (setting [14]); 5.13E+07 in data set [1] (setting [15]); 1.01E+07 in data set [1] (setting [16]); 7.28E+07 in data set [1] (setting [17]). Further, the “% of organ targeting” value in data set [1] (setting [15]) was 38.21%; in data set [1] (setting [16]), 7.55%; in data set [1] (setting [17]), 54.25%. In addition, the PDI in data set [2] (setting [13]) is listed as 0.13. Also, the “Particle size (nm)” value in data set [2] (setting [13]) came out at 129.13 nm. Also, the “Zeta potential (mV)” value in data set [3] (setting [13]) was found to be 9.23 mV.

As for `CCCC/C=C\CCOCOCCCCOC(=O)C(O)CN(CCN(C)CCN(CC(O)C(=O)OCCCCOCOCC/C=C\CCCC)CC(O)C(=O)OCCCCOCOCC/C=C\CCCC)CC(O)C(=O)OCCCCOCOCC/C=C\CCCC` (stereo not shown) [Compound L0335], the IVIS in data set [1] (setting [12]) is recorded as 1.99E+06; in data set [1] (setting [14]) it was 9.08E+07; in data set [1] (setting [15]) it was 1.92E+07; in data set [1] (setting [16]), 1.39E+06; in data set [1] (setting [17]) it was 3.05E+07. Besides, the figures for the “% of organ targeting” value in data set [1] (setting [15]), in data set [1] (setting [16]) and in data set [1] (setting [17]) were 37.57%, 2.72% and 59.71%, respectively. Besides, in data set [2] (setting [13]), the PDI turned out to be 0.19. Besides, the “Particle size (nm)” value in data set [2] (setting [13]) came out at 110.13 nm. Further, in data set [3] (setting [13]), the “Zeta potential (mV)” value worked out at 14.07 mV.
